Several values for one entry are separate records, joined by “and”; a condition that tells them apart may be missing. Equal values may be shown once. Read-outs that look alike come from different tables or passages of the source.

From US20080102497A1, “ENZYMATIC HYDROLYSIS OF STARCH” (priority 2006, published 2008) come the findings set out here.

Assay [1] concerns the target α-amylase from Bacillus licheniformis (Bacillus licheniformis, UniProt P06278). Briefly: hydrolysis of cooked dent corn starch with other additives. Format: biochemical. The note with it: for effect on rate of enzymatic hydrolysis (in words): 10 mM additive, cooked dent corn starch; for Relative Activity: cooked dent corn starch 0.5%, pH 5.2, 37° C., 10 min. As to the method: The α-amylase from Bacillus licheniformis was added to a sodium acetate buffer solution, pH 5.2, […], di-sodium EDTA, NH4^+, Sr^++, Na^+, K^+, Al^+++, or Ba^++ and 0.5% by weight cooked dent corn starch. The separate reaction mixtures were incubated at 37° C. for 10 minutes. The control reaction mixture contained enzyme, buffer, and starch but no additive. The starch hydrolysis reaction was stopped by combining the reaction mixture with a solution containing DNSA and heating for 30 min at 85° C. The absorbance of the control and test samples was measured at 562 nm to monitor the amount of reducing sugar in each sample.

For another assay, the target named is β-amylase from barley (Hordeum vulgare, UniProt P16098). The assay is described as above. The assay is classed as biochemical. The conditions noted are these: for effect on rate of enzymatic hydrolysis (in words): 10 mM additive, cooked dent corn starch; for Relative Activity: cooked dent corn starch 0.5%, pH 5.2, 37° C., 10 min. As to the method: […] The separate reaction mixtures were incubated at 37° C. for 10 minutes. The control reaction mixture contained enzyme, buffer, and starch but no additive. The starch hydrolysis reaction was stopped by combining the reaction mixture with a solution containing DNSA and heating for 30 min at 85° C. The absorbance of the control and test samples was measured at […] to monitor the amount of reducing sugar in each sample.

Assay [2] addresses glucoamylase from Aspergillus Niger (Aspergillus niger, UniProt P69328). The assay is described as above. The conditions noted are these: for effect on rate of enzymatic hydrolysis (in words): 10 mM additive, cooked dent corn starch; for Relative Activity: cooked dent corn starch 0.5%, pH 5.2, 37° C., 10 min. Format: biochemical. The protocol:
The glucoamylase from Aspergillus Niger was added to a sodium acetate buffer solution, pH 5.2, comprising no metal or 10 mM Fe^++, Mg^++, Li^+, Zn^++, Cu^++, Ca^++, di-sodium EDTA, NH4^+, Sr^++, Na^+, K^+, Al^+++, or Ba^++ and 0.5% by weight cooked dent corn starch. The separate reaction mixtures were incubated at 37° C. for 10 minutes. The control reaction mixture contained enzyme, buffer, and starch but no additive. The starch hydrolysis reaction was stopped by combining the reaction mixture with a solution containing DNSA and heating for 30 min at 85° C. The absorbance of the control and test samples was measured at 562 nm to monitor the amount of reducing sugar in each sample.

Assay [3] concerns enzyme mixture of purified glucoamylase from mushroom and purified α-amylase from barley. Briefly: hydrolysis of raw corn starch by enzyme mixture, reducing sugar by DNSA. Format: biochemical. The conditions noted are these: for Relative Activity: 10 mM additive, raw corn starch, pH 5.3, 37° C., 20 min; for effect on hydrolysis of raw corn starch (in words): summary of Table 2. The protocol: Enzyme mixture was also pre-incubated with 10 mM Fe^++, Cu^++, Ca^++, Mg^++, or disodium ethylenediamine-tetraacetic acid (EDTA). Thereafter, 40 μl of each pre-incubation solution was added to 15 mg raw corn starch, and the reaction mixture incubated at 37° C. for 20 minutes. The control reaction mixture contained substrate, enzyme, and buffer but no additional metal ions. The starch hydrolysis reaction was stopped by combining the reaction mixture with a solution containing 3,5 dinitrosalicylic acid (DNSA) and heating for 30 min at 85° C. The absorbance of the control and test samples was measured at 562 nm to monitor the amount of reducing sugar in each sample.

Assay [4] deals with glucoamylase from Rhizopus sp. The note with it: 1.0 mM manganese salt, raw corn starch, pH 5.3, 37° C. As to the method:
An enzyme solution of the glucoamylase from Rhizopus sp. Was prepared in a sodium acetate buffer, pH 5.3, comprising 1.0 mM manganese chloride, manganese acetate, or manganese sulfate. Thereafter, 40 μl of each enzyme solution was added to 15 mg raw corn starch and the reaction mixtures incubated at 37° C. for 5, 10, 15, 20, or 25 minutes. The starch hydrolysis reaction was stopped by combining the reaction mixture with a solution containing DNSA and heating for 30 min at 85° C. The absorbance of the control and test samples was measured at 562 nm to monitor the amount of reducing sugar in each sample.

Chain of β-amylase from barley (P16098 whole entry): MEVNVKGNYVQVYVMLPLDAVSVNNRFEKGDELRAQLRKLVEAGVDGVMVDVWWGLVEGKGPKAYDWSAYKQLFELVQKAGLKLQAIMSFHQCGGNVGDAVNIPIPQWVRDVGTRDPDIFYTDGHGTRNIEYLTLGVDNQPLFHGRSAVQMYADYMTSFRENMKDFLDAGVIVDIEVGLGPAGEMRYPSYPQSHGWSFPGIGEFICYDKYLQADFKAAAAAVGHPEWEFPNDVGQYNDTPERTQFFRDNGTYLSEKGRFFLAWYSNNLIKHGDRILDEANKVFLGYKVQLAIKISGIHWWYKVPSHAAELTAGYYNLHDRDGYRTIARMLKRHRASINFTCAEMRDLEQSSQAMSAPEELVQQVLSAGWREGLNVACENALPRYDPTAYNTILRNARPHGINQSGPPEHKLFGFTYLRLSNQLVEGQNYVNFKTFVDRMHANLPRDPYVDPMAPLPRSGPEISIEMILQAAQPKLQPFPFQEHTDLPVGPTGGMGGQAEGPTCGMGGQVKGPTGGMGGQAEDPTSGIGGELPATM
Chain of α-amylase from Bacillus licheniformis (P06278 30-512): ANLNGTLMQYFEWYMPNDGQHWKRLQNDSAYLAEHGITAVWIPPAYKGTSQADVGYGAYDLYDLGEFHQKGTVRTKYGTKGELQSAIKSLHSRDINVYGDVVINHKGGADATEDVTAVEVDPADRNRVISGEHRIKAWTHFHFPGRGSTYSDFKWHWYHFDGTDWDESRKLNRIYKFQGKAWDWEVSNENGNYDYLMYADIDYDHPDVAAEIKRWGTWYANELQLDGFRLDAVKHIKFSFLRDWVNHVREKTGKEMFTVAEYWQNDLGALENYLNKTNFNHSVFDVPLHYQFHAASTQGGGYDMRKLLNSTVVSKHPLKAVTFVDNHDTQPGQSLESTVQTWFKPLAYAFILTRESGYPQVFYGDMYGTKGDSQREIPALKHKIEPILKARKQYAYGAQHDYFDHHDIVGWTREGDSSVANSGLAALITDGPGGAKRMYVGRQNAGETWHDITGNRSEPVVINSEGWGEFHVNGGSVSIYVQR
Chain of glucoamylase from Aspergillus Niger (P69328 25-640): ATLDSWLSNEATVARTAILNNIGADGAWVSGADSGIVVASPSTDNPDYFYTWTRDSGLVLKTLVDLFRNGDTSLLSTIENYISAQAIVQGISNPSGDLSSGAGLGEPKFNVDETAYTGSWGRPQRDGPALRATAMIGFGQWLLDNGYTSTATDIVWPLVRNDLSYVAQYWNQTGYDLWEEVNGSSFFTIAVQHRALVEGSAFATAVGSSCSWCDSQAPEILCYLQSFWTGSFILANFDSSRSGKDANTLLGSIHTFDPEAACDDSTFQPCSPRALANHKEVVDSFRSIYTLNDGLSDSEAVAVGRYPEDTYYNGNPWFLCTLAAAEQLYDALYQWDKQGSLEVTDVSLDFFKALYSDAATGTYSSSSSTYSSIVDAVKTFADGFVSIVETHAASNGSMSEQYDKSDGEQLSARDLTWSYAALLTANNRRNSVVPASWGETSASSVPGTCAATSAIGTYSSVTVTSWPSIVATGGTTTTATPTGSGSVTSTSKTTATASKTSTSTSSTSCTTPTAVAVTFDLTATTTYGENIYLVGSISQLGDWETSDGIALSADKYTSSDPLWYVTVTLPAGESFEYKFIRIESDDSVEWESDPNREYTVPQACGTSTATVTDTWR

Turning to `[Al+3]` [Al^+++], the “effect on rate of enzymatic hydrolysis (in words)” value (“effect on rate” below) in assay [1] is reported as “does not increase the enzymatic rate of hydrolysis”; on β-amylase from barley it was “do not significantly increase the rate of enzymatic hydrolysis”; in assay [2], “do not significantly increase the rate of enzymatic hydrolysis”. Moreover, the “Relative Activity” value in assay [1] (Additive (10 mM)) was found to be 95.1%; on β-amylase from barley (Additive (10 mM)), 77.5%; in assay [2] (Additive (10 mM)), 96.2%.

Turning to `[Ba+2]` [Ba^++, barium ion], the “effect on rate” value in assay [1] is listed as “does not increase the enzymatic rate of hydrolysis”; at β-amylase from barley it was “increase the rate of enzymatic hydrolysis”; in assay [2], “do not significantly increase the rate of enzymatic hydrolysis”. Also, the “Relative Activity” value is recorded as 98.1% in assay [1] (Additive (10 mM)), 114.6% on β-amylase from barley (Additive (10 mM)) and 99.3% in assay [2] (Additive (10 mM)).

With `[Ca+2]` [Ca^++, calcium ions], the “Relative Activity” value is 97.3% in assay [3]; 119.1% and 94.8% and 99.4% and 90.0% in assay [1] (Additive (10 mM)); 83.6% in assay [1] (additive 1 mM); 114.1% and 127.2% and 121.2% on β-amylase from barley (Additive (10 mM)); 111.8% and 105.8% and 105.0% on β-amylase from barley (additive 1 mM); 103.8% and 104.4% and 97.4% in assay [2] (Additive (10 mM)). Besides, the “Relative Activity” value in assay [2] (additive 1 mM) is 108.0%. Also, the “effect on hydrolysis of raw corn starch (in words)” value (“effect on hydrolysis” below) in assay [3] is “do not have a similar effect”. For the same compound, the “effect on rate” value (on β-amylase from barley; in assay [2]) was “increase the rate of enzymatic hydrolysis” each time.

As for `[Cu+2]` [Cu^++], the “Relative Activity” value in assay [3] was 47.5%; in assay [1] (Additive (10 mM)), 30.0%; on β-amylase from barley (Additive (10 mM)), 6.7%; in assay [2] (Additive (10 mM)) it was 33.9%. Besides, the “effect on hydrolysis” value in assay [3] was “do not have a similar effect”. In addition, the entries for the “effect on rate” value (in assay [1]; on β-amylase from barley; in assay [2]) were “does not increase the enzymatic rate of hydrolysis”, “do not significantly increase the rate of enzymatic hydrolysis” and “do not significantly increase the rate of enzymatic hydrolysis”, respectively.

Take `O=C(O)CN(CCN(CC(=O)O)CC(=O)O)CC(=O)O.[Na].[Na]` [Disodium EDTA, disodium ethylenediamine-tetraacetic acid]: the “Relative Activity” value in assay [3] worked out at 88.8%; in assay [1] (Additive (10 mM)), 103.8%; on β-amylase from barley (Additive (10 mM)), 100.4%; in assay [2] (Additive (10 mM)) it was 57.6%. In assay [3], the “effect on hydrolysis” value is “do not have a similar effect”. The “effect on rate” value in assay [1] is “does not increase the enzymatic rate of hydrolysis”; at β-amylase from barley, “do not significantly increase the rate of enzymatic hydrolysis”; in assay [2], “do not significantly increase the rate of enzymatic hydrolysis”.

As to `[K+]` [K^+, potassium ion], the “effect on rate” value in assay [1] was “does not increase the enzymatic rate of hydrolysis”; on β-amylase from barley, “do not significantly increase the rate of enzymatic hydrolysis”; in assay [2] it was “increase the rate of enzymatic hydrolysis”. Further, the “Relative Activity” value was 82.8% in assay [1] (Additive (10 mM)), 101.1% on β-amylase from barley (Additive (10 mM)) and 113.3% in assay [2] (Additive (10 mM)).

Consider `[Li+]` [Li^+, lithium ion], for which the results for the “effect on rate” value (in assay [1]; at β-amylase from barley; in assay [2]) were “does not increase the enzymatic rate of hydrolysis”, “do not significantly increase the rate of enzymatic hydrolysis” and “increase the rate of enzymatic hydrolysis”, respectively. The entries for the “Relative Activity” value (in assay [1] (Additive (10 mM)); on β-amylase from barley (Additive (10 mM)); in assay [2] (Additive (10 mM))) were 89.2%, 101.6% and 118.1%, respectively.

Take `O=S(=O)([O-])[O-].[Mn+2]` [MnSO4, manganese sulfate]: the “% Conversion” value was 0.50% in assay [4] (5 minutes); 0.87% in assay [4] (10 minutes); 1.12% in assay [4] (15 minutes); 1.30% in assay [4] (20 minutes); 1.58% in assay [4] (25 minutes); 0% in assay [4] (time 0).

For `N` [NH4^+], the “effect on rate” value is on record as “does not increase the enzymatic rate of hydrolysis” in assay [1], “do not significantly increase the rate of enzymatic hydrolysis” on β-amylase from barley and “do not significantly increase the rate of enzymatic hydrolysis” in assay [2]. The “Relative Activity” value turned out to be 86.4% in assay [1] (Additive (10 mM)), 95.1% on β-amylase from barley (Additive (10 mM)) and 98.3% in assay [2] (Additive (10 mM)).

On to `[Na+]` [Na^+], for which the “effect on rate” value is recorded as “does not increase the enzymatic rate of hydrolysis” in assay [1], “do not significantly increase the rate of enzymatic hydrolysis” on β-amylase from barley and “do not significantly increase the rate of enzymatic hydrolysis” in assay [2]. The “Relative Activity” value in assay [1] (Additive (10 mM)) was 84.2%; on β-amylase from barley (Additive (10 mM)), 95.1%; in assay [2] (Additive (10 mM)) it was 97.3%.

Turning to `[Sr+2]` [Sr^++, strontium ion], the “effect on rate” value was “does not increase the enzymatic rate of hydrolysis” in assay [1], “increase the rate of enzymatic hydrolysis” at β-amylase from barley and “do not significantly increase the rate of enzymatic hydrolysis” in assay [2]. The “Relative Activity” value in assay [1] (Additive (10 mM)) is recorded as 87.2%; on β-amylase from barley (Additive (10 mM)), 114.1%; in assay [2] (Additive (10 mM)), 93.8%.

On to `[Zn+2]` [Zn^++], for which the entries for the “effect on rate” value (in assay [1]; at β-amylase from barley; in assay [2]) were “does not increase the enzymatic rate of hydrolysis”, “do not significantly increase the rate of enzymatic hydrolysis” and “do not significantly increase the rate of enzymatic hydrolysis”, respectively. Moreover, the “Relative Activity” value in assay [1] (Additive (10 mM)) is reported as 100.2%; at β-amylase from barley (Additive (10 mM)) it was 70.6%; in assay [2] (Additive (10 mM)) it was 57.3%.

Take manganese acetate [MnOAc]: the “% Conversion” value came out at 0.46% in assay [4] (5 minutes); 0.74% in assay [4] (10 minutes); 1.04% in assay [4] (15 minutes); 1.28% in assay [4] (20 minutes); 1.50% in assay [4] (25 minutes); 0% in assay [4] (time 0).

Consider manganese chloride [MnCl2], for which the “% Conversion” value in assay [4] (5 minutes) came out at 0.44%; in assay [4] (10 minutes), 0.74%; in assay [4] (15 minutes), 1.01%; in assay [4] (20 minutes) it was 1.22%; in assay [4] (25 minutes), 1.70%; in assay [4] (time 0), 0%.
